Reference: article PMC7144209, “Design, synthesis and anticancer activity of naphthoquinone derivatives” (Journal of Enzyme Inhibition and Medicinal Chemistry, 2020)

Columns and labels:
U87 = assay: MTT cell viability assay, U87 cells; type: cell-based; conditions: 48 h, n = 3
Procedure: (§1) MGC-803, SGC-7901, U87 and SMMC-7721 cell lines were cultured in DMEM supplemented with 10% foetal bovine serum, 100 IU/mL penicillin/streptomycin. The cells were incubated in an atmosphere containing 5% CO2 at 37 °C.
(§2) MGC-803, SGC-7901, U87 and SMMC-7721 cells were plated in 96-well plate at 7000 per well. Cells were incubated with the different concentrations of the compounds for 48 h. Subsequently, MTT (0.5 mg/mL) were used to test the cell viability, then 150 μL DMSO was added to each well after cells were incubated for 4 h and the absorbance was measured at 492 nm.

SMMC-7721 = assay: MTT cell viability assay, SMMC-7721 cells; type: cell-based; conditions: Homo sapiens, 48 h, n = 3
Procedure: as §1, §2

MGC-803 = assay: MTT cell viability assay, MGC-803 cells; type: cell-based; conditions: n = 3
Procedure: as §1, §2

L02 = assay: MTT cell viability assay, L02 cells; type: cell-based; conditions: Homo sapiens, n = 3
[1] = Metabolic stability assay in human liver microsomes; type: in vitro ADME
Procedure: To initially evaluate the stability of compound 12, we then tested the liver microsome stability of this compound. The Mean % Parent Remaining of compound 12 in metabolic stability test were 100, 95, 85, 80, and 70 at 0, 15, 30, 45, and 60 min, respectively.

SGC-7901 cells [2] = assay: Annexin V-FITC/PI apoptosis assay (flow cytometry); type: cell-based, human; conditions: 48 h; for total apoptosis: control 4.34%
Procedure: After the indicated treatments for 48 h, cells were collected, washed three times with cold PBS, centrifuged and resuspended with 400 μL AnnexinV binding buffer per tube. Then the cells were stained with 5μLAnnexinV-FITC and incubated in the dark for 10 min on ice. Finally, 10 μL PI staining solution was added, and cells were detected by the flow cytometry after incubated in the dark for 5 min. Flowjo 7.6.1 software was used to analyse the cell apoptosis.
(§3) Apoptosis is one of the main methods that result in cell death. In this study, Annexin V-FITC/PI kit was used to evaluate the cell apoptosis. […] To further, investigate whether the cell apoptosis induced by title compound, Western blot analysis was used to measure the effect of the compound on apoptosis of SGC-7901 cell. As reported that apoptosis pathway could be regulated by the activation of PARP and Bcl2 family proteins[40]^,[41].

SGC-7901 cells [3] = assay: Colony formation assay; type: cell-based, human; conditions: SGC-7901, 2, 4, 8 μM, 12 d
Procedure: SGC-7901 cells (8000/well) were seeded in 6-well plate, and treated with indicated concentrations of compound 12 (2 μM, 4 μM, 8 μM) for 12 d. The medium was removed and methanol (500 μL/well) was added to fix at the cells for 3 min. Then cells were stained with giemsa working fluid for 15 min and washed with PBS. The number of colonies was counted.

[4] = system: Bax, Bcl-2, cleaved PARP in SGC-7901 cells; assay: Western blot of apoptosis-related proteins; type: cell-based, human
Procedure: (§4) RIPA lysis buffer was used to dissociate the treated cells. Cells were lysed and the supernatant was harvested after centrifuged for 30 min. The cell proteins were separated using Sodium dodecyl sulphate-polyacrylamide gel electrophoresis, and then they were transferred to the PVDF membranes. The membranes were blocked with skimmed milk solution (5%) for 2 h, then incubated with primary antibodies (1:1000, cst) for 20 h at 4 °C. The membranes were detected by chemiluminescence reagent after probed with the secondary antibody for 1 h.
as §3

[5] = system: LC3-II, P62, Beclin1 in SGC-7901 cells; assay: Western blot of autophagy-related proteins; type: cell-based, human; conditions: SGC-7901, Western blot
Procedure: as §4
Autophagy is a process of lysosomal degradation that can deliver the cytoplasmic cargo to the lysosome. To assess whether compound 12 could promote autophagy on SGC-7901 cells, the expressions of autophagy-related proteins were examined. Autophagy will be switched on when LC3-I was converted into LC3-II, and the level of LC3-II involves in the formation of autophagosome. Meanwhile p62 is a marker of the degradative lysosome[43]^,[44]. As shown in Figure 6(A), compound can decrease the level of P62 and increase the expressions of LC3II and Beclin1.

SGC-7901 cells [6] = assay: Acridine orange (AO) staining of acidic vesicles; type: cell-based, human; conditions: SGC-7901, 1, 2, and 4 μM, 48 h
Procedure: PH-sensitive Acridine orange (AO) was used to label acidic vesicles. Human gastric cancer cells were seeded in laser confocal dishes at 10,000/ml. After indicated treatment of compound 12 (1 μM, 2 μM, 4 μM) for 48 h, cells were stained with AO (1 μg/ml) for 15 min at the cell culture incubator. After the cells were washed by PBS, pictures were acquired under laser confocal microscope.
(§5) Another typical feature of autophagy is the accumulation of the acidic autophagic vacuoles (AVOs)[45]^,[46]. To verify the development of AVOs, Acridine Orange (AO) staining was used to examine whether the acidic vesicular organelles in SGC-7901 cells were increased. AO produces red fluorescence when it accumulates in acidic regions such as autophagy lysosomes and lysosomes and produces bright green fluorescence in the cytoplasm and the nucleus. […] GFP-LC3 indicating technique was also used to detect the autophagy at the same time. When autophagy is formed, multiple bright green fluorescent spots will form as the GFP-LC3 fusion protein can translate to autophagosome membrane. From Figure 6(C), compared to the blank control group, GFP-LC3 puncta were increased after cells treated with compound 12 (4 μM) meanwhile decreased after treated with compound 12 (4 μM) and 3-MA (500 μM).

[7] = system: GFP-LC3 in SGC-7901 cells; assay: GFP-LC3 transfection, puncta by confocal microscopy; type: cell-based, human
Procedure: A plasmid GFP-tagged LC3 reporter gene (0.8 μg/500 μL) was transfected into SGC-7901 cells by Lipofectamine 2000, then cells were incubated for 24 h. After different treatments for 24 h, cells were fixed with 4% paraformaldehyde for 20 min, and washed three times with PBS. Finally, Laser confocal dishes were analysed using confocal microscope.
as §5

[8] = SGC-7901, increasing concentration (1, 2, 4 μM)

IC50 (U87): 3.8 ± 0.2 µM | IC50 (U87; Homo sapiens, U-87 MG): 3.85 µM | IC50 (SMMC-7721): 20.6 ± 0.4 µM | IC50 (MGC-803; 48 h): 4.1 ± 0.6 µM | IC50 (MGC-803; Homo sapiens, MGC-803, 48 h): 4.07 µM | Mean % Parent Remaining ([1]; 0 min): 100% | Mean % Parent Remaining ([1]; 15 min): 95% | Mean % Parent Remaining ([1]; 30 min): 85% | Mean % Parent Remaining ([1]; 45 min): 80% | Mean % Parent Remaining ([1]; 60 min): 70% | microsomal CLint ([1]; human, read-out: calculated clearance rate): > 110 µL/min/mg | half-life ([1]; human, read-out: half-life (t1/2)): > 1 h
SMILES: CC(C)=CCC(OC(=O)CCC(=O)Nc1ccc(Oc2ccccc2)cc1)C1=CC(=O)c2c(O)ccc(O)c2C1=O (stereo not shown) [Compound 12, 1-(5,8-dihydroxy-1,4-dioxo-1,4-dihydronaphthalen-2-yl)-4-methylpent-3-en-1-yl-4-oxo-4-((4-phenoxyphenyl)amino)butanoate]
IC50 (L02): > 50 µM | total apoptosis (SGC-7901 cells [2]; SGC-7901, 1 μM): 6.45% | total apoptosis (SGC-7901 cells [2]; SGC-7901, 2 μM): 9.72% | total apoptosis (SGC-7901 cells [2]; SGC-7901, 4 μM): 19.9% | apoptosis rate in the presence of 3-MA compared with compound 12 alone (SGC-7901 cells [2]; compound 12 4 μM, 3-MA 500 μM): decreased | number of colonies vs control (SGC-7901 cells [3]): decreased | level of Bax [4, 8]: up-regulated | level of Bcl2 [4, 8]: down-regulated | level of cleaved PARP [4, 8]: up-regulated | up-regulation of Bax and cl-PARP and down-regulation of Bcl-2 in the group with 3-MA ([4]; compound 12 with 3-MA 500 μM, 48 h): inhibited | expression of Beclin1 [5]: increase | expression of LC3II [5]: increase | level of P62 [5]: decrease | red fluorescently labelled acidic vesicles (AO staining) (SGC-7901 cells [6]): accumulated obviously | GFP-LC3 puncta vs blank control ([7]; SGC-7901, compound 12 4 μM): increased | GFP-LC3 puncta ([7]; SGC-7901, compound 12 4 μM and 3-MA 500 μM): decreased
